# Where “and” joins values, the source holds several entries; their conditions need not be identical. Equal values may be shown once.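 Method: 48-hour compound exposure of cells in 96-well plates, five concentrations, linear interpolation of endpoints. At the GI50, growth is halved. TGI denotes the concentration required for complete inhibition of growth.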
# Experiments:
# Experiment in all cases: DTP human tumour cell line panel, 48 h
# NCI-H522 lung = system: NCI-H522 lung
# EKVX NSCLC = system: EKVX NSCLC
# RXF 393 renal = system: RXF 393 renal
# HL-60(TB) leukemia = system: HL-60(TB) leukemia
# MDA-MB-231 breast = system: MDA-MB-231 breast
# MALME-3M melanoma = system: MALME-3M melanoma
# 786-0 renal = system: 786-0 renal
# OVCAR-3 ovarian = system: OVCAR-3 ovarian
# SK-OV-3 ovarian = system: SK-OV-3 ovarian
# A549 NSCLC = system: A549 NSCLC
# CCRF-CEM leukemia = system: CCRF-CEM leukemia
# MDA-N = system: MDA-N
# IGROV1 ovarian = system: IGROV1 ovarian
Compound,TGI (NCI-H522 lung),TGI (EKVX NSCLC),TGI (RXF 393 renal),TGI (HL-60(TB) leukemia),TGI (MDA-MB-231 breast),TGI (MALME-3M melanoma),TGI (786-0 renal),TGI (OVCAR-3 ovarian),TGI (SK-OV-3 ovarian),TGI (A549 NSCLC),TGI (CCRF-CEM leukemia),TGI (MDA-N),TGI (IGROV1 ovarian),GI50 (HL-60(TB) leukemia)
O=C1CSC(c2cccc(Oc3ccccc3)c2)N1c1cccc(Cl)c1Cl (stereo not drawn),61.1 µM,99.3 µM,> 100 µM,70.2 µM,> 100 µM,82.9 µM,87.7 µM,> 100 µM,> 100 µM,> 100 µM,> 100 µM,58.7 µM,,
Clc1nc(Nc2nc3ccccc3[nH]2)nc(Cl)c1-c1ccccc1,42.5 µM,71.4 µM,35.6 µM,> 100 µM,29.1 µM,38.6 µM,34.6 µM,,50.5 µM,> 100 µM,66.5 µM,23.7 µM,54.2 µM,
Nc1nc(Cl)c(C=O)c(NCC2(CO)CCC2)n1,14.7 µM,46.9 µM,50.1 µM,22.3 µM,81.5 µM,> 100 µM,> 100 µM,42.9 µM,69.5 µM,> 100 µM,34.1 µM,77 µM,25.9 µM,
COc1ccc(Br)c(C=Nc2cccc3cc(OC)c(OC)cc23)c1,> 100 µM,> 100 µM,> 100 µM,7.97 µM,> 46.4 µM,99.6 µM,> 100 µM,> 100 µM,> 100 µM,> 100 µM,> 40.5 µM,> 41.4 µM,> 93.9 µM,
CCNC1=C(NC(=O)CCl)C(=O)c2ccccc2C1=O,32.2 µM,29.6 µM,30.6 µM,88.9 µM,40.9 µM,34.9 µM,> 100 µM,31.5 µM,> 10 µM,99.6 µM,58.1 µM,29.2 µM,> 10 µM,
CC1(C)CC[C@]2(C(=O)O)CC[C@]3(C)C(=CC[C@@H]4[C@@]5(C)CC[C@H](OC6OC(CO)C(O)C(O)C6O)C(C)(C)[C@@H]5CC[C@]43C)[C@@H]2C1 (stereo partly drawn),2.91 µM,,3.77 µM,3.83 µM,3.07 µM,3.16 µM,3.23 µM,3.01 µM,3.16 µM,3.08 µM,6.36 µM,3.54 µM,3.06 µM,
C[C@H](CO)C1=CC(C#C[Si](C)(C)C)N(C(=O)Oc2ccccc2)c2ccccc21 (stereo partly drawn),15.7 µM,29.1 µM,23 µM,47.2 µM,23.4 µM,,27.2 µM,13.5 µM,31.1 µM,26.8 µM,53.1 µM,13.3 µM,29.9 µM,
COc1ccc(NC(=S)Nc2c(C)n(C)n(-c3ccccc3)c2=O)cc1,> 100 µM,> 100 µM,> 100 µM,> 100 µM,> 100 µM,> 100 µM,> 100 µM,> 100 µM,> 100 µM,> 100 µM,> 100 µM,> 100 µM,> 100 µM,
COC1C(OC(C)=O)CC(=O)OC(C)C/C=C/C=C\C(O)C(C)CC(CC=O)C1OC1OC(C)C(OC2CC(C)(O)C(OC(=O)CC(C)C)C(C)O2)C(N(C)C)C1O (stereo not drawn),> 100 µM,,> 100 µM,> 100 µM,> 100 µM,> 100 µM,> 100 µM,> 100 µM,> 100 µM,> 100 µM,> 100 µM,> 100 µM,> 100 µM,36.2 µM and > 100 µM
Cc1cc(=O)n2nc(CSc3n[nH]c(=S)s3)sc2n1,> 100 µM,> 100 µM,> 100 µM,> 100 µM,> 100 µM,> 100 µM,> 100 µM,> 100 µM,> 100 µM,> 100 µM,> 100 µM,> 100 µM,> 100 µM,
NS(=O)(=O)c1ccc(N2C(=O)C(=O)N(c3ccccc3)C2=S)cc1,> 100 µM,> 100 µM,> 100 µM,> 100 µM,> 100 µM,> 100 µM,> 100 µM,,> 100 µM,> 100 µM,> 100 µM,> 100 µM,> 100 µM,
O=P(O)(O)CC1OC(CO)C(O)C1O (stereo not drawn),> 100 µM,> 100 µM,> 100 µM,> 100 µM,> 100 µM,> 100 µM,> 100 µM,> 100 µM,> 100 µM,> 100 µM,> 100 µM,> 100 µM,> 100 µM,
COc1ccc(C(=O)N(Cc2cccnc2)C(=S)N(Cc2cccnc2)C(=O)c2ccc(OC)cc2)cc1,> 100 µM,> 100 µM,> 100 µM,> 100 µM,> 100 µM,> 100 µM,> 100 µM,> 100 µM,> 100 µM,> 100 µM,> 100 µM,> 100 µM,,

# Source: PubChem BioAssay (NCI)
